Results: US20240174680A1, “CDK2 INHIBITORS AND METHODS OF USING THE SAME” (Cedilla Therapeutics, Inc., priority 2021, published 2024)

Molecular target: CDK2/Cyclin E1 (Homo sapiens, UniProt P24941)
Assay: CDK2/Cyclin E1 Caliper LabChip EZ Reader mobility shift assay
Type: biochemical
Parameters: purchased Eurofins 14-475
Details: read-out: Caliper Assay (CDK2/CCNE1): IC50
Procedure, shortened: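 Mobility-shift kinase assay: compound titrations preincubated 30 min with enzyme and ATP, reaction started with 5-FAM-QSPKKG-CONH2 peptide. Final 2.5 nM CDK2/Cyclin E1, 100 μM ATP, 1.5 μM peptide, HEPES pH 7.5; stopped with EDTA after 100 min. IC50 from four-parameter fit of normalized conversion ratio.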

SMILES	IC50 [nM]
CNC(=O)[C@@H](NC(=O)[C@H]1CN(C(=O)c2scnc2C2CCCC2)CC12CN(C(=O)[C@H]1CC1(C)C)C2)[C@@H](C)OCC1CCCCC1 [I-224A]	1000 to 10000
CNC(=O)[C@@H](NC(=O)[C@@H]1CN(C(=O)c2cncs2)CC12CN(C(=O)C(C)(C)C)C2)[C@@H](C)OCC1CCCCC1 [I-186A]	10 to 100
CO[C@H]1COCC[C@@H]1NC(=O)[C@@H]1CN(C(=O)c2cnn(Cc3ccccc3)c2)CC12CN(C(=O)[C@H]1CC1(C)C)C2 [I-148A]	> 10000
CNC(=O)[C@@H](NC(=O)[C@H]1CN(C(=O)Nc2cnn(Cc3ccccc3)c2)CC12CN(C(=O)[C@H]1CC1(C)C)C2)[C@@H](C)OCc1ccccc1 [I-48B]	> 10000
CNC(=O)[C@@H](NC(=O)[C@H]1CN(C(=O)c2cnn(Cc3ccccc3)c2)CC12CN(C(=O)C1(c3ccc(C(C)(C)C)cc3)CC1)C2)[C@@H](C)OCc1ccccc1 [I-80B]	> 10000
C[C@@H](OCC1CCCCC1)[C@H](NC(=O)[C@@H]1CN(C(=O)c2cnn(Cc3ccccc3)c2)CC12CN(C(=O)[C@H]1CC1(C)C)C2)C(=O)N1CCC(c2nnco2)CC1 [I-449]	≤ 10
CC1(C)C[C@@H]1C(=O)N1CC2(CN(C(=O)c3cnn(Cc4ccccc4)c3)C[C@H]2C(=O)NC[C@H]2CC[C@@H](C)CC2)C1 [I-388]	> 10000
CCOC(=O)C(C)(C)CNC(=O)[C@@H](NC(=O)[C@@H]1CN(C(=O)c2cnn(Cc3ccccc3)c2)CC12CN(C(=O)[C@H]1CC1(C)C)C2)[C@@H](C)OCC1CCCCC1 [I-473]	≤ 10
CNC(=O)[C@@H](NC(=O)[C@H]1CN(C(=O)c2cnn(Cc3ccccc3)c2)CC12CN(C(=O)CC(C)C)C2)[C@@H](C)OCc1ccccc1 [I-69B]	> 10000
CNC(=O)[C@@H](NC(=O)[C@H]1CN(C(=O)c2cnn(CC3CCN(C(C)=O)CC3)c2)CC12CN(C(=O)[C@H]1CC1(C)C)C2)[C@@H](C)OCc1ccccc1 [I-17B]	> 10000
CNC(=O)[C@@H](NC(=O)[C@@H]1CN(C(=O)c2cnn(Cc3ccccc3)c2)CC12CN(C(=O)[C@H]1CC1(C)C)C2)[C@@H](C)OCCC1CCCCC1 [I-125A]	≤ 10
C[C@@H](OCC1CCCCC1)[C@H](NC(=O)C1CN(C(=O)C2CCC(=O)NC2)CC12CN(C(=O)[C@H]1CC1(C)C)C2)C(=O)N1CCCCC1 (stereo partly shown) [I-265]	1000 to 10000
CNC(=O)[C@@H](NC(=O)[C@@H]1CN(C(=O)c2cnn(Cc3ccccc3)c2)CC12CN(C(=O)C(C)(C)C)C2)[C@@H](C)OCc1ccccc1 [I-65A]	10 to 100
C[C@@H](OCC12CCC(CC1)OC2)[C@H](NC(=O)[C@@H]1CN(C(=O)c2cncs2)CC12CN(C(=O)[C@H]1CC1(C)C)C2)C(=O)N1CCC(C)(C)CC1 [I-452]	≤ 10
CNC(=O)[C@@H](NC(=O)[C@@H]1CN(C(=O)c2cnn(Cc3ccccc3)c2)CC12CN(C(=O)[C@H]1CC1(C)C)C2)[C@@H](C)SCc1ccccc1 [I-368]	100 to 1000
CNC(=O)[C@@H](NC(=O)[C@H]1CN(Cc2cncs2)CC12CN(C(=O)[C@H]1CC1(C)C)C2)[C@@H](C)OCc1ccccc1 [I-51B]	> 10000
CNC(=O)[C@@H](NC(=O)[C@]1(C)CN(C(=O)c2cnn(Cc3ccccc3)c2)CC12CN(C(=O)[C@H]1CC1(C)C)C2)[C@@H](C)OCC1CCCCC1 [I-499A]	1000 to 10000
C[C@@H](NC(=O)[C@H]1CN(C(=O)c2cnn(Cc3ccccc3)c2)CC12CN(C(=O)[C@H]1CC1(C)C)C2)c1cccc(F)c1 [I-128B]	> 10000
CNC(=O)[C@@H](NC(=O)[C@@H]1CN(C(=O)c2cnn(Cc3ccccc3)c2)CC12CN(C(=O)[C@H]1CC1(C)C)C2)[C@@H](C)OCc1ccc(Br)cc1 [I-263]	≤ 10
CNC(=O)[C@@H](NC(=O)[C@@H]1CN(C(=O)c2cnn(Cc3ccccc3)c2)CC12CN(C(=O)[C@H]1CC1(C)C)C2)[C@@H](C)OCC(C)C [I-137A]	100 to 1000

SMILES	IC50 [nM]
CC1(C)C[C@@H]1C(=O)N1CC2(CN(C(=O)c3cnn(Cc4ccccc4)c3)C[C@H]2C(=O)N[C@@H]2CCN(c3ccccc3)C2)C1 [I-207]	1000 to 10000
C[C@@H](OCC1CCCCC1)[C@H](NC(=O)[C@@H]1CN(C(=O)c2ccn[nH]2)CC12CN(C(=O)[C@H]1CC1(C)C)C2)C(=O)N1CCCCC1 [I-216]	100 to 1000
CNC(=O)[C@@H](NC(=O)[C@@H]1CN(C(=O)c2cncs2)CC12CN(C(=O)[C@H]1CC1(C)C)C2)[C@@H](C)OC1CCCCC1 [I-290]	100 to 1000
C[C@@H](OC(C)(C)C1CCCCC1)[C@H](NC(=O)[C@@H]1CN(C(=O)c2cncs2)CC12CN(C(=O)[C@H]1CC1(C)C)C2)C(=O)N1CCCCC1 [I-395]	10 to 100
COC[C@H]1CCCN(C(=O)[C@@H](NC(=O)[C@@H]2CN(C(=O)c3cnn(Cc4ccccc4)c3)CC23CN(C(=O)[C@H]2CC2(C)C)C3)[C@@H](C)OC)C1 [I-283]	1000 to 10000
CNC(=O)[C@@H](NC(=O)[C@H]1CN(Cc2ccncc2)CC12CN(C(=O)[C@H]1CC1(C)C)C2)[C@@H](C)OCc1ccccc1 [I-55B]	> 10000
CNC(=O)[C@@H](NC(=O)[C@H]1CN(C(=O)c2cnn(Cc3ccccc3)c2)CC12CN(C(=O)[C@H]1CC1(C)C)C2)[C@H](C)OCC1CCCCC1 [I-165]	> 10000
C[C@@H]1C[C@H](C)CN(C(=O)[C@@H](NC(=O)C2CN(C(=O)c3cnn(Cc4ccccc4)c3)CC23CN(C(=O)[C@H]2CC2(C)C)C3)[C@@H](C)OCc2ccccc2)C1 (stereo partly shown) [I-22]	10 to 100
CNC(=O)[C@H](CO)NC(=O)C1CN(C(=O)c2cnn(Cc3ccccc3)c2)CC12CN(C(=O)[C@H]1CC1(C)C)C2 (stereo partly shown) [I-260]	> 10000
C[C@@H](OCC1CCCCC1)[C@H](NC(=O)C1CN(C(=O)C2CCC(=O)N(C)C2)CC12CN(C(=O)[C@H]1CC1(C)C)C2)C(=O)N1CCCCC1 (stereo partly shown) [I-242]	1000 to 10000
CNC(=O)[C@@H](NC(=O)[C@@H]1CN(C(=O)c2cncs2)CC12CN(C(=O)[C@H]1CC1(C)C)C2)[C@@H](C)OCC12CCC(CC1)OC2 [I-342]	10 to 100
CNC(=O)[C@@H](NC(=O)[C@H]1CN(C(=O)c2cnn(Cc3ccccc3)c2)CC12CN(C(=O)[C@H]1CC1(C)C)C2)[C@@H](C)OCC1CCCC1 [I-110B]	100 to 1000
CNC(=O)[C@@H](NC(=O)[C@@H]1CN(C(=O)c2cnn(Cc3ccccc3)c2)CC12CN(C(=O)C1(C#N)CC1)C2)[C@@H](C)OCc1ccccc1 [I-73A]	1000 to 10000
CC1(C)C[C@@H]1C(=O)N1CC2(CN(C(=O)c3cnn(Cc4ccccc4)c3)C[C@H]2C(=O)NCC2CCCCO2)C1 (stereo partly shown) [I-221]	> 10000
CNC(=O)[C@@H](NC(=O)[C@H]1CN(C(=O)c2cnn(Cc3ccccc3)c2)CC12CN(C(=O)CC1CCC1)C2)[C@@H](C)OCc1ccccc1 [I-27B]	> 10000
CCOC(=O)[C@H]1CCCN(C(=O)[C@@H](NC(=O)[C@@H]2CN(C(=O)c3cnn(Cc4ccccc4)c3)CC23CN(C(=O)[C@H]2CC2(C)C)C3)[C@@H](C)OCC2CCCCC2)C1 [I-482]	≤ 10
CC1(C)C[C@@H]1C(=O)N1CC2(CN(C(=O)c3cnn(Cc4ccccc4)c3)C[C@H]2C(=O)N2CCO[C@@H](Cc3ccccc3)C2)C1 [I-210]	> 10000
COC[C@H]1CCCN(C(=O)CNC(=O)[C@@H]2CN(C(=O)c3cncs3)CC23CN(C(=O)[C@H]2CC2(C)C)C3)C1 [I-323]	1000 to 10000
C[C@@H](OCc1ccccc1)[C@H](NC(=O)C1CN(C(=O)c2cnn(Cc3ccccc3)c2)CC12CN(C(=O)[C@H]1CC1(C)C)C2)C(=O)NCC#CCN (stereo partly shown) [I-28]	100 to 1000
CNC(=O)[C@@H](NC(=O)[C@H]1CN(C(=O)c2nccs2)CC12CN(C(=O)[C@H]1CC1(C)C)C2)[C@@H](C)OCC1CCCCC1 [I-146]	> 10000
